This test has as its system tyramine oxidase (microbial, copper amine oxidase). The test is described as follows: Compound was evaluated for inhibition of Microbial tyramine oxidase; ni denotes no inhibition detected at millimolar concentrations.

With `Cl.NC1(c2ccccc2)CC1F` (centres undefined), the IC50 result is reported as “Not Active”. Next, `Cl.NCC[C@@H]1C[C@]1(F)c1ccccc1` (relative stereo): “Not Active”; `Cl.NC[C@@H]1C[C@]1(F)c1ccccc1` (relative stereo): “Not Active”; `NC(=O)C1CC1(F)c1ccccc1` (trans isomer): “Not Active”.

(Values after ChEMBL document CHEMBL1148448, “Fluorinated phenylcyclopropylamines. 1. Synthesis and effect of fluorine substitution at the cyclopropane ring on inhibition of microbial tyramine oxidase” (J Med Chem, 2004).)
